Assay results: ChEMBL document CHEMBL1138974 (Bioorg Med Chem Lett, 2006)
The source made the active and inactive calls. No cut-off for these calls is given here.

Key:
[1] = Intrinsic clearance in rat microsome; format: ADME; details: microsomes
[2] = Intrinsic clearance in human microsome; format: ADME; details: microsomes
[3] = Ratio of drug level in brain against plasma in rat; format: ADME, organism-based; details: read-out: BPR
[4] = Oral bioavailability in rat; format: ADME, organism-based; details: in vivo
[5] = Clearance in rat; format: ADME, organism-based; details: in vivo
[6] = Volume of distribution in rat; format: ADME, organism-based; details: in vivo, read-out: Vss
[7] = Intrinsic clearance in mouse microsome; format: ADME; details: microsomes
[8] = target: Voltage-gated inwardly rectifying potassium channel KCNH2 (Homo sapiens, UniProt Q12809); assay: Inhibition of hERG potassium channel expressed in CHO cells by whole cell patch clamp method; format: toxicity, cell-based
[9] = Dissociation constant, pKa of the compound; format: physicochemical
[10] = target: T1, Sodium- and chloride-dependent glycine transporter 1 (Homo sapiens, UniProt P48067); assay: (§1) Inhibition of [3H]glycine uptake at human GlyT1 by radiometric assay
T1 sequence (P48067 whole entry): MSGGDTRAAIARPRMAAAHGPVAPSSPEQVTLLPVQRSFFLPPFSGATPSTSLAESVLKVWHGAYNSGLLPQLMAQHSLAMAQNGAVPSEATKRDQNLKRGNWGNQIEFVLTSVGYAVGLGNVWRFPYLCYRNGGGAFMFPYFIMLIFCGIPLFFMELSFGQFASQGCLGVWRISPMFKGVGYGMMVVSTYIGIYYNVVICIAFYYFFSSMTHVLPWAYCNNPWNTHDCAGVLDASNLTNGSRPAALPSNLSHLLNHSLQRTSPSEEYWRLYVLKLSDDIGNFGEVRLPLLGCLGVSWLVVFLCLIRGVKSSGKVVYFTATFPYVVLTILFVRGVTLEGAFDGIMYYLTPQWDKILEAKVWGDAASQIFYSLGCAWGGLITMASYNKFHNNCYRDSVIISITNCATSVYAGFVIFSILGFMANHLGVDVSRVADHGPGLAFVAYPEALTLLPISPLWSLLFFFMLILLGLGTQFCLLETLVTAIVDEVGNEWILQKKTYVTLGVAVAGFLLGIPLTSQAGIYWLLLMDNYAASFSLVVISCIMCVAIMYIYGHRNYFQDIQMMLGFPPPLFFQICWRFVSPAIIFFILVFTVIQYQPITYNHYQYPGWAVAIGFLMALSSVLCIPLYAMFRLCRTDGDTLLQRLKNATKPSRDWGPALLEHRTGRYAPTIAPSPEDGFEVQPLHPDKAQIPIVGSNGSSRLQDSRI

[11] = target: T2, Sodium- and chloride-dependent glycine transporter 2 (Homo sapiens, UniProt Q9Y345); assay: (§2) Inhibition of [3H]glycine uptake at human GlyT2 by radiometric assay
T2 sequence (Q9Y345 whole entry): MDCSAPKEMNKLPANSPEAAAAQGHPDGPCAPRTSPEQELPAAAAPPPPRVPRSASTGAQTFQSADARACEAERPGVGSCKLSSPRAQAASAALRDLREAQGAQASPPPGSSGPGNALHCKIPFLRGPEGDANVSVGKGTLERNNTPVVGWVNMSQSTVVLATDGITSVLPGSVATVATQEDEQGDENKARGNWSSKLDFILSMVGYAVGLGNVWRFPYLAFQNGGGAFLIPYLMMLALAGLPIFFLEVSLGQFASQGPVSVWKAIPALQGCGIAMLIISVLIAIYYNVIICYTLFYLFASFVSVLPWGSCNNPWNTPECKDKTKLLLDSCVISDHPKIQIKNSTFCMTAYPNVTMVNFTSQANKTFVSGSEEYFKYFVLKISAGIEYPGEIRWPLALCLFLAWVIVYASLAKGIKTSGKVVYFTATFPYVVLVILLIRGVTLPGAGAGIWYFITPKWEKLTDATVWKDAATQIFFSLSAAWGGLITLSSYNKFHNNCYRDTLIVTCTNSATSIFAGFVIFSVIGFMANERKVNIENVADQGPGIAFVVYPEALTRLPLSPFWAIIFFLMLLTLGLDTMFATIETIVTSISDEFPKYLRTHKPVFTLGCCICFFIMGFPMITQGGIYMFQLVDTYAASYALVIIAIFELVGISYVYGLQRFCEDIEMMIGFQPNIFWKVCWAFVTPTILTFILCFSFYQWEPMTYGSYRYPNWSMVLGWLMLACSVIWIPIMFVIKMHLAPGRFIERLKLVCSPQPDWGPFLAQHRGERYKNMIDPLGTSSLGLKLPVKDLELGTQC

Nociceptin receptor = Nociceptin receptor (Homo sapiens, UniProt P41146); assay: Displacement of [3H]NOP from human NOP receptors expressed in HEK293 cells; format: cell-based; details: hek293
[12] = target: T3, Sodium- and chloride-dependent glycine transporter 1 (Homo sapiens) (UniProt P48067); assay: as §1
T3 sequence (whole entry): T1 sequence (P48067 whole entry)

[13] = target: T4, Sodium- and chloride-dependent glycine transporter 2 (Homo sapiens) (UniProt Q9Y345); assay: as §2
T4 sequence (whole entry): T2 sequence (Q9Y345 whole entry)

[14] = Oral bioavailability in mouse; format: ADME, organism-based; details: in vivo
[15] = Clearance in mouse; format: ADME, organism-based; details: in vivo
[16] = Volume of distribution in mouse; format: ADME, organism-based; details: in vivo, read-out: Vss

Voltage-gated inwardly rectifying potassium channel KCNH2, sequence (Q12809 whole entry): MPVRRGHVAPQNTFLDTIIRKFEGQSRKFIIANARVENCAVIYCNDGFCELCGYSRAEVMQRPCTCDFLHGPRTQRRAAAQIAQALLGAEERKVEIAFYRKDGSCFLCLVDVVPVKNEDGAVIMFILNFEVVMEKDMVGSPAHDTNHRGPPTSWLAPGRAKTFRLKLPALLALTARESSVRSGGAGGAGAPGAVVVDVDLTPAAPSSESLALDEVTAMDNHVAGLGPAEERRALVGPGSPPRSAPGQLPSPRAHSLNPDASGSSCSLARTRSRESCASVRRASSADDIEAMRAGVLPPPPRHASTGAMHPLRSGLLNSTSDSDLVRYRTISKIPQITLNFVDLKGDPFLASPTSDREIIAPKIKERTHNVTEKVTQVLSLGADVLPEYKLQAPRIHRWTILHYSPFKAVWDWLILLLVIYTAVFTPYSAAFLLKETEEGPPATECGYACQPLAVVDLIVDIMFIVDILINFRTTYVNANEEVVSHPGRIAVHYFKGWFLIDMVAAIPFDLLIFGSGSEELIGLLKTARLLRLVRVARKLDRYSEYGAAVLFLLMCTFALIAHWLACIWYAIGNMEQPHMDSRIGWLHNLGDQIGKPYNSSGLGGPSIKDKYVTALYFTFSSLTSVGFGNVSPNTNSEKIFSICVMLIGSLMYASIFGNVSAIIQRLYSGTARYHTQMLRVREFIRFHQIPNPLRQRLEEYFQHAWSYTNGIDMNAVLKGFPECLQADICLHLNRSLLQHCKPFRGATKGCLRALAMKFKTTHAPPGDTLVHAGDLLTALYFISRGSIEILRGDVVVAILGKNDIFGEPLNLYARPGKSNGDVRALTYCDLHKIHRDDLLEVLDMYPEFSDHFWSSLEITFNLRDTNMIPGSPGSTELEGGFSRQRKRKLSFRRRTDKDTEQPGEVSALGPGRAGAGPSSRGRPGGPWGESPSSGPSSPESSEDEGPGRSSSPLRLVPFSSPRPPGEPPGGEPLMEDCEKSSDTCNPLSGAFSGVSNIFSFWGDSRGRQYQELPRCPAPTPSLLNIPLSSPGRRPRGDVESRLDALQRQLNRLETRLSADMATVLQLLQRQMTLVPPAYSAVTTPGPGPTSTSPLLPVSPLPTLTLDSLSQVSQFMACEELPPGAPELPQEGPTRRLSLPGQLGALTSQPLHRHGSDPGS
Nociceptin receptor, sequence (P41146 whole entry): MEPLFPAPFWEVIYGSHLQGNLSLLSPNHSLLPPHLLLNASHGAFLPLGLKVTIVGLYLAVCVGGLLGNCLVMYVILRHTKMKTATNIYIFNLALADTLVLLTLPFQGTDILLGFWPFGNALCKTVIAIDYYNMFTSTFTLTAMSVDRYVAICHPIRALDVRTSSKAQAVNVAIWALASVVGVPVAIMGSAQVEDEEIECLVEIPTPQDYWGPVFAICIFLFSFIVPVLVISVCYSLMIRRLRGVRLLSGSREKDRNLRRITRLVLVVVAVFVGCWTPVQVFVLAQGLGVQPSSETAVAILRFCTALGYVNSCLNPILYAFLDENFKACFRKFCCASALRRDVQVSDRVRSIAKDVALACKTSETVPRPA

SMILES | microsomal CLint [1] [µL/min/mg] | microsomal CLint [2] [µL/min/mg] | Kp [3] | bioavailability [4] [%] | clearance [5] [mL/min/kg] | Vd [6] [L/kg] | microsomal CLint [7] [µL/min/mg] | IC50 [8] [nM] | pKa [9] | EC50 [10] [nM] | EC50 [11] [nM] | IC50 (Nociceptin receptor) [nM] | Activity [12] [nM] | Activity [13] | bioavailability [14] [%] | clearance [15] [mL/min/kg] | Vd [16] [L/kg]
O=C1NCN(c2ccccc2)C12CCN(C1CCCCC1c1ccccc1)CC2 (stereo not given) | 240 | 68 | 1.6 | 8 | 120 | 7.3 |  |  |  |  |  |  |  |  |  |  | 
O=C1NCC(c2ccccc2)C12CCN(C1CCCCC1(O)c1ccc(F)cc1)CC2 (single isomer, unassigned; diastereomer 1) |  | 44 |  |  |  |  | 13 | 1800 | 8.54 | 70 | > 30000 | > 10000 |  |  |  |  | 
O=C1NCC(c2ccc(F)cc2)C12CCN(C1CCCCC1(O)c1ccccc1)CC2 (stereo not given) |  |  |  |  |  |  |  |  | 6.89 |  |  |  | 91 | inactive |  |  | 
O=C1NCN(c2ccccc2)C12CCN(C1CCCCC1(O)c1ccc(F)cc1)CC2 (stereo not given) | 499 | 78 |  |  |  |  |  |  |  | 24 |  |  |  |  |  |  | 
O=C1NC[C@@H](c2ccccc2)C12CCN(C1CCCCC1c1ccccc1)CC2 (stereo in doubt; 27) |  | 23 | 5.2 |  | 63 | 4.3 | 36 | 1400 | 8.85 | 61 |  |  |  |  | 27 | 99 | 8.9
